Results on 15 compounds are retold here after patent US20250235543A1, “MODIFIED PROTEINS AND PROTEIN DEGRADERS” (Cullgen (Shanghai), Inc., priority 2021, published 2025).

For one test, the system named is cyclin D1. The test is described as follows: Cyclin D1 percentage degradation in Calu-1 cells (immunoblotting). It counts as cell-based. As to conditions: 200 nM, 16 hours. In a few lines:
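Cyclin D1 degradation was assessed by western blot. Clarified lysates, obtained by RIPA lysis with inhibitors and centrifugation at 13,000 rpm, were normalized by BCA protein assay and separated by SDS-PAGE. Bands were detected with Western ECL Substrate on a Bio-Rad ChemiDoc MP Imaging system and quantified in Image Lab software to derive percentage degradation.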
(In general: Immunoblotting shows a protein as a band on a membrane.)

Another test deals with T1, CDK4 (Homo sapiens, UniProt P11802).
T1 construct: endogenous in cells; host or cells: Calu-1
The test is described as follows: CDK4 percentage degradation in Calu-1 cells (immunoblotting). It counts as cell-based. The settings on record: Calu-1 cells, 200 nM, 16 hours; read-out: CDK4 Degradation (200 nM). In a few lines:
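CDK4 degradation was measured by immunoblotting. Cells were washed in cold PBS and lysed in RIPA buffer with inhibitors for 30 min at 4° C., then spun at 13,000 rpm to clear. After BCA protein determination, lysates were heated at 99° C. for 5 min in Laemmli buffer, resolved on SDS-PAGE, imaged on a ChemiDoc MP with ECL substrate, and band intensities quantified.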

T1 sequence (P11802 2-303 limits assumed): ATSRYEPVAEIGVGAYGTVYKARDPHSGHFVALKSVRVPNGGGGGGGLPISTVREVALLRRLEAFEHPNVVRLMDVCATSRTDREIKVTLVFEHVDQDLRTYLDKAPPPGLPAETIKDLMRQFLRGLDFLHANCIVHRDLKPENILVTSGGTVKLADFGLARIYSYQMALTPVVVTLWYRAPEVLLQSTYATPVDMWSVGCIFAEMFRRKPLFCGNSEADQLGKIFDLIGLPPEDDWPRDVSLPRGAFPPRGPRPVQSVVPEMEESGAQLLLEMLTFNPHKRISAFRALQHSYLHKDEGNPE
T1 sequence (P24385 whole entry partner): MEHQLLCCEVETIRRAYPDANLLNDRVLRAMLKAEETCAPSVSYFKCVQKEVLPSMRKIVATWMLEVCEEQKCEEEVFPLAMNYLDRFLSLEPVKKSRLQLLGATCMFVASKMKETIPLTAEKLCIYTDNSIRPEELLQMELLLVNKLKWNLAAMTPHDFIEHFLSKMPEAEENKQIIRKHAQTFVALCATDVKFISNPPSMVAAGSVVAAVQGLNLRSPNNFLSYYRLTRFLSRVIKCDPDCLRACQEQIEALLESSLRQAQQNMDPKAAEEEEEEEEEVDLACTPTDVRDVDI
T1 sequence (Q16531 2-1140 limits assumed, further chain): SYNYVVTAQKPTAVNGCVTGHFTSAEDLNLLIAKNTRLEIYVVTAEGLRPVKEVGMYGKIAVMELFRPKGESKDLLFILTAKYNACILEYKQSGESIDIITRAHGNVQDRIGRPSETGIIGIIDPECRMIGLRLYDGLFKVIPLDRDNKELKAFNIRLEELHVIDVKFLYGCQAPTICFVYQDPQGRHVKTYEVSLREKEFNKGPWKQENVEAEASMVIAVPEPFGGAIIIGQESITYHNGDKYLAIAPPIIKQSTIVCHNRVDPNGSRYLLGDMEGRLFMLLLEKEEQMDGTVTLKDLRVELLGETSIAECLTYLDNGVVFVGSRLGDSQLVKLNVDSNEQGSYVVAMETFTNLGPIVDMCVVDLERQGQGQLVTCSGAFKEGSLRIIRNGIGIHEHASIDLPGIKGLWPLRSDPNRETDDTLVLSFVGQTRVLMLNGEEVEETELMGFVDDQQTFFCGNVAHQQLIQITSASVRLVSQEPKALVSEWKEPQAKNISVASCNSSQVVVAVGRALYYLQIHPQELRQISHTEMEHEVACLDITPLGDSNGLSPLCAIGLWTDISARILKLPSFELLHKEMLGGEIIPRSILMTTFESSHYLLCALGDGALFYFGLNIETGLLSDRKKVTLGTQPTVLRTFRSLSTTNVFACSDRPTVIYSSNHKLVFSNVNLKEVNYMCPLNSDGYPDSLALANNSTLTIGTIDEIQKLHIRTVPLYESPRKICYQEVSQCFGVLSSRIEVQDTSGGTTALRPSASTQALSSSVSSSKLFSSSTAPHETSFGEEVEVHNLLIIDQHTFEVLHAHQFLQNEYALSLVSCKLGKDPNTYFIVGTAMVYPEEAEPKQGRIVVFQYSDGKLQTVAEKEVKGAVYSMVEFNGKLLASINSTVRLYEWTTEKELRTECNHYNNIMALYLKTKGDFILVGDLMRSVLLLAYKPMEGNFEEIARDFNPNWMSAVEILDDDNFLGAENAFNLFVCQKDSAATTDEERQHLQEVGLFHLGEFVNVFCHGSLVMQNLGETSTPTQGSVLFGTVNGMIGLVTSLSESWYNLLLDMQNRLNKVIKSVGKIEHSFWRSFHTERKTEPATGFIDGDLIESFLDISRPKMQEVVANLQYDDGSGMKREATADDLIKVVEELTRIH

Regarding `CC(=O)c1c(C)c2cnc(Nc3ccc(N4CCN(CC(=O)NCCOCCOCCC(=O)Nc5ccccc5C(=O)Nc5nc(C6CC6)c(C)s5)CC4)cn3)nc2n(C2CCCC2)c1=O` [CPD-057, 2-(3-(2-(2-(2-(4-(6-((6-Acetyl-8-cyclopentyl-5-methyl-7-oxo-7,8-dihydropyrido[2,3-d]pyrimidin-2-yl)amino)pyridin-3-yl)piperazin-1-yl)acetamido)ethoxy)ethoxy)propanamido)-N-(4-cyclopropyl-5-methylthiazol-2-yl)benzamide], the “CyclinD1 Degradation (200 nM)” value in the test with cyclin D1 is reported as “A (protein percentage degradation >=80%)”. At CDK4, the inhibition at 0.2 µM fell in the range of 50 to 80%.
With `CC(=O)c1c(C)c2cnc(Nc3ccc(N4CCN(CC(=O)NCCOCCOCCC(=O)Nc5ccccc5C(=O)Nc5nc(C)ns5)CC4)cn3)nc2n(C2CCCC2)c1=O` [CPD-058, 2-(3-(2-(2-(2-(4-(6-((6-Acetyl-8-cyclopentyl-5-methyl-7-oxo-7,8-dihydropyrido[2,3-d]pyrimidin-2-yl)amino)pyridin-3-yl)piperazin-1-yl)acetamido)ethoxy)ethoxy)propanamido)-N-(3-methyl-1,2,4-thiadiazol-5-yl)benzamide], the “CyclinD1 Degradation (200 nM)” value in the test with cyclin D1 was “D (protein percentage degradation <30%)”. Moreover, the inhibition at 0.2 µM at CDK4 is below 30%.
Consider `CC(=O)c1c(C)c2cnc(Nc3ccc(N4CCN(CC(=O)NCCOCCOCCC(=O)Nc5ccccc5C(=O)Nc5nc(C6CC6)ns5)CC4)cn3)nc2n(C2CCCC2)c1=O` [CPD-059, 2-(3-(2-(2-(2-(4-(6-((6-Acetyl-8-cyclopentyl-5-methyl-7-oxo-7,8-dihydropyrido[2,3-d]pyrimidin-2-yl)amino)pyridin-3-yl)piperazin-1-yl)acetamido)ethoxy)ethoxy)propanamido)-N-(3-cyclopropyl-1,2,4-thiadiazol-5-yl)benzamide], for which the “CyclinD1 Degradation (200 nM)” value in the test on cyclin D1 is “D (protein percentage degradation <30%)”. Besides, the inhibition at 0.2 µM at CDK4 is below 30%.
In the case of `CC(=O)c1c(C)c2cnc(Nc3ccc(N4CCN(CC(=O)NCCOCCOCCC(=O)Nc5ccccc5C(=O)Nc5ccc(C)nc5)CC4)cn3)nc2n(C2CCCC2)c1=O` [CPD-060, 2-(3-(2-(2-(2-(4-(6-((6-Acetyl-8-cyclopentyl-5-methyl-7-oxo-7,8-dihydropyrido[2,3-d]pyrimidin-2-yl)amino)pyridin-3-yl)piperazin-1-yl)acetamido)ethoxy)ethoxy)propanamido)-N-(6-methylpyridin-3-yl)benzamide], in the test with cyclin D1, the “CyclinD1 Degradation (200 nM)” value is listed as “A (protein percentage degradation >=80%)”. In addition, the inhibition at 0.2 µM at CDK4 lay within 50 to 80%.
The matching figures for `CC(=O)c1c(C)c2cnc(Nc3ccc(N4CCN(CC(=O)NCCOCCOCCC(=O)Nc5ccccc5C(=O)Nc5ccc(C)cn5)CC4)cn3)nc2n(C2CCCC2)c1=O` [CPD-061, 2-(3-(2-(2-(2-(4-(6-((6-Acetyl-8-cyclopentyl-5-methyl-7-oxo-7,8-dihydropyrido[2,3-d]pyrimidin-2-yl)amino)pyridin-3-yl)piperazin-1-yl)acetamido)ethoxy)ethoxy)propanamido)-N-(5-methylpyridin-2-yl)benzamide]: “A (protein percentage degradation >=80%)” and 50 to 80%.
In the case of `CC(=O)c1c(C)c2cnc(Nc3ccc(N4CCN(CC(=O)NCCOCCOCCC(=O)Nc5ccccc5C(=O)Nc5nc(C6CCOCC6)c(C)s5)CC4)cn3)nc2n(C2CCCC2)c1=O` [CPD-062, 2-(3-(2-(2-(2-(4-(6-((6-Acetyl-8-cyclopentyl-5-methyl-7-oxo-7,8-dihydropyrido[2,3-d]pyrimidin-2-yl)amino)pyridin-3-yl)piperazin-1-yl)acetamido)ethoxy)ethoxy)propanamido)-N-(5-methyl-4-(tetrahydro-2H-pyran-4-yl)thiazol-2-yl)benzamide], the “CyclinD1 Degradation (200 nM)” value in the test with cyclin D1 was “D (protein percentage degradation <30%)”. The inhibition at 0.2 µM at CDK4 was below 30%.
Turning to `CC(=O)c1c(C)c2cnc(Nc3ccc(N4CCN(CC(=O)NCCOCCOCCC(=O)Nc5ccccc5C(=O)Nc5cn(C)cn5)CC4)cn3)nc2n(C2CCCC2)c1=O` [CPD-063, 2-(3-(2-(2-(2-(4-(6-((6-Acetyl-8-cyclopentyl-5-methyl-7-oxo-7,8-dihydropyrido[2,3-d]pyrimidin-2-yl)amino)pyridin-3-yl)piperazin-1-yl)acetamido)ethoxy)ethoxy)propanamido)-N-(1-methyl-1H-imidazol-4-yl)benzamide], the “CyclinD1 Degradation (200 nM)” value in the test with cyclin D1 was “D (protein percentage degradation <30%)”. Also, the inhibition at 0.2 µM at CDK4 was below 30%.
`CC(=O)c1c(C)c2cnc(Nc3ccc(N4CCN(CC(=O)NCCOCCOCCC(=O)Nc5ccccc5C(=O)Nc5ncc(C)[nH]5)CC4)cn3)nc2n(C2CCCC2)c1=O` [CPD-064, 2-(3-(2-(2-(2-(4-(6-((6-Acetyl-8-cyclopentyl-5-methyl-7-oxo-7,8-dihydropyrido[2,3-d]pyrimidin-2-yl)amino)pyridin-3-yl)piperazin-1-yl)acetamido)ethoxy)ethoxy)propanamido)-N-(5-methyl-1H-imidazol-2-yl)benzamide]: the “CyclinD1 Degradation (200 nM)” value in the test with cyclin D1 is recorded as “D (protein percentage degradation <30%)”. Also, the inhibition at 0.2 µM on CDK4 was below 30%.
The matching figures for `CC(=O)c1c(C)c2cnc(Nc3ccc(N4CCN(CC(=O)NCCOCCOCCC(=O)Nc5ccccc5C(=O)Nc5ccc(C)s5)CC4)cn3)nc2n(C2CCCC2)c1=O` [CPD-065, 2-(3-(2-(2-(2-(4-(6-((6-Acetyl-8-cyclopentyl-5-methyl-7-oxo-7,8-dihydropyrido[2,3-d]pyrimidin-2-yl)amino)pyridin-3-yl)piperazin-1-yl)acetamido)ethoxy)ethoxy)propanamido)-N-(5-methylthiophen-2-yl)benzamide]: “A (protein percentage degradation >=80%)” and 50 to 80%.
As for `CC(=O)c1c(C)c2cnc(Nc3ccc(N4CCN(CC(=O)NCCOCCOCCC(=O)Nc5ccccc5C(=O)Nc5ncc(C)o5)CC4)cn3)nc2n(C2CCCC2)c1=O` [CPD-066, 2-(3-(2-(2-(2-(4-(6-((6-Acetyl-8-cyclopentyl-5-methyl-7-oxo-7,8-dihydropyrido[2,3-d]pyrimidin-2-yl)amino)pyridin-3-yl)piperazin-1-yl)acetamido)ethoxy)ethoxy)propanamido)-N-(5-methyloxazol-2-yl)benzamide], the “CyclinD1 Degradation (200 nM)” value in the test with cyclin D1 is on record as “D (protein percentage degradation <30%)”. The inhibition at 0.2 µM on CDK4 is below 30%.
As for `CC(=O)c1c(C)c2cnc(Nc3ccc(N4CCN(CC(=O)NCCOCCOCCNc5cccc(C(=O)Nc6cc(C)n(C)n6)c5C)CC4)cn3)nc2n(C2CCCC2)c1=O` [CPD-067, 3-((2-(2-(2-(2-(4-(6-((6-Acetyl-8-cyclopentyl-5-methyl-7-oxo-7,8-dihydropyrido[2,3-d]pyrimidin-2-yl)amino)pyridin-3-yl)piperazin-1-yl)acetamido)ethoxy)ethoxy)ethyl)amino)-N-(1,5-dimethyl-1H-pyrazol-3-yl)-2-methylbenzamide], in the test with cyclin D1, the “CyclinD1 Degradation (200 nM)” value is “A (protein percentage degradation >=80%)”. Further, the inhibition at 0.2 µM on CDK4 lay in the range of 50 to 80%.
With `CC(=O)c1c(C)c2cnc(Nc3ccc(N4CCN(CC(=O)NCCOCCOCCC(=O)Nc5ccccc5C(=O)Nc5ccn(C)n5)CC4)cn3)nc2n(C2CCCC2)c1=O` [CPD-068, 2-(3-(2-(2-(2-(4-(6-((6-Acetyl-8-cyclopentyl-5-methyl-7-oxo-7,8-dihydropyrido[2,3-d]pyrimidin-2-yl)amino)pyridin-3-yl)piperazin-1-yl)acetamido)ethoxy)ethoxy)propanamido)-N-(1-methyl-1H-pyrazol-3-yl)benzamide], the “CyclinD1 Degradation (200 nM)” value in the test on cyclin D1 is “A (protein percentage degradation >=80%)”. For the same compound, the inhibition at 0.2 µM at CDK4 was in the range of 50 to 80%.
The matching figures for `CC(=O)c1c(C)c2cnc(Nc3ccc(N4CCN(CC(=O)NCCOCCOCCC(=O)Nc5ccccc5C(=O)Nc5cc(C(F)(F)F)n(C)n5)CC4)cn3)nc2n(C2CCCC2)c1=O` [CPD-069, 2-(3-(2-(2-(2-(4-(6-((6-Acetyl-8-cyclopentyl-5-methyl-7-oxo-7,8-dihydropyrido[2,3-d]pyrimidin-2-yl)amino)pyridin-3-yl)piperazin-1-yl)acetamido)ethoxy)ethoxy)propanamido)-N-(1-methyl-5-(trifluoromethyl)-1H-pyrazol-3-yl)benzamide]: “D (protein percentage degradation <30%)” and below 30%.
As for `CC(=O)c1c(C)c2cnc(Nc3ccc(N4CCN(CC(=O)NCCOCCOCCC(=O)Nc5ccccc5C(=O)Nc5nc(C(C)C)c(C)s5)CC4)cn3)nc2n(C2CCCC2)c1=O` [CPD-070, 2-(3-(2-(2-(2-(4-(6-((6-Acetyl-8-cyclopentyl-5-methyl-7-oxo-7,8-dihydropyrido[2,3-d]pyrimidin-2-yl)amino)pyridin-3-yl)piperazin-1-yl)acetamido)ethoxy)ethoxy)propanamido)-N-(4-isopropyl-5-methylthiazol-2-yl)benzamide], in the test on cyclin D1, the “CyclinD1 Degradation (200 nM)” value is recorded as “A (protein percentage degradation >=80%)”. On CDK4, the inhibition at 0.2 µM is above 80%.
For `CC(=O)c1c(C)c2cnc(Nc3ccc(N4CCN(CC(=O)NCCOCCOCCC(=O)Nc5ccccc5C(=O)Nc5nc(Br)c(C)s5)CC4)cn3)nc2n(C2CCCC2)c1=O` [CPD-071, 2-(3-(2-(2-(2-(4-(6-((6-Acetyl-8-cyclopentyl-5-methyl-7-oxo-7,8-dihydropyrido[2,3-d]pyrimidin-2-yl)amino)pyridin-3-yl)piperazin-1-yl)acetamido)ethoxy)ethoxy)propanamido)-N-(4-bromo-5-methylthiazol-2-yl)benzamide], the “CyclinD1 Degradation (200 nM)” value in the test on cyclin D1 was “A (protein percentage degradation >=80%)”. Also, on CDK4, the inhibition at 0.2 µM is above 80%.
